Measurements as given in PubChem BioAssay AID1963964 (Molecular Pharmacology Branch, DTP, NCI, 2024).

Tested on: 997726-040-R-J2-PDC tumor spheroids, viability
Assay: Anticancer human tumor 997726-040-R-J2-PDC patient-derived squamous cell lung carcinoma cell line growth inhibition [PI3K]
Settings: spheroids with HUVEC and MSC; for IC50: curve of first compound; for viability, T/C: stronger effect = lower value
Summary of the method: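 We assembled tumor spheroids that included a stromal compartment of HUVEC and MSCs, then exposed them to targeted agents alone and together with PI3K pathway inhibitors. Concentration series descended by half-log from clinically achievable Cmax levels. Viability served as the endpoint.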

[1] = second compound 0.00316 µM, first compound 0.0316 µM
[2] = second compound 0.00316 µM, first compound 0.1 µM
[3] = second compound 0.00316 µM, first compound 0.316 µM
[4] = second compound 0.00316 µM, first compound 1 µM
[5] = second compound 0.01 µM, first compound 0.0316 µM
[6] = second compound 0.01 µM, first compound 0.1 µM
[7] = second compound 0.01 µM, first compound 0.316 µM
[8] = second compound 0.01 µM, first compound 1 µM
[9] = second compound 0.0316 µM, first compound 0.0316 µM
[10] = second compound 0.0316 µM, first compound 0.1 µM
[11] = second compound 0.0316 µM, first compound 0.316 µM
[12] = second compound 0.0316 µM, first compound 1 µM
[13] = second compound 0.1 µM, first compound 0.0316 µM
[14] = second compound 0.1 µM, first compound 0.1 µM
[15] = second compound 0.1 µM, first compound 0.316 µM
[16] = second compound 0.1 µM, first compound 1 µM
[17] = second compound 0.316 µM, first compound 0.0316 µM
[18] = second compound 0.316 µM, first compound 0.1 µM
[19] = second compound 0.316 µM, first compound 0.316 µM
[20] = second compound 0.316 µM, first compound 1 µM
[21] = second compound 1 µM, first compound 0.0316 µM
[22] = second compound 1 µM, first compound 0.1 µM
[23] = second compound 1 µM, first compound 0.316 µM
[24] = second compound 1 µM, first compound 1 µM
[25] = second compound 0.00316 µM, first compound 3.16 µM
[26] = second compound 0.00316 µM, first compound 10 µM
[27] = second compound 0.01 µM, first compound 3.16 µM
[28] = second compound 0.01 µM, first compound 10 µM
[29] = second compound 0.0316 µM, first compound 3.16 µM
[30] = second compound 0.0316 µM, first compound 10 µM
[31] = second compound 0.1 µM, first compound 3.16 µM
[32] = second compound 0.1 µM, first compound 10 µM
[33] = second compound 0.316 µM, first compound 3.16 µM
[34] = second compound 0.316 µM, first compound 10 µM
[35] = second compound 1 µM, first compound 3.16 µM
[36] = second compound 1 µM, first compound 10 µM
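Note: spheroids exposed to compounds for seven days before readout.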

With `CCN1CCN(Cc2ccc(Nc3ncc(F)c(-c4cc(F)c5nc(C)n(C(C)C)c5c4)n3)nc2)CC1` + COc1c(OCCCN2CCOCC2)ccc2c3n(c(=NC(=O)c4cnc(N)nc4)nc12)CCN3 the IC50 (second compound 0.00316 µM) was > 1000 nM, the IC50 (second compound 0.01 µM) was 10.4 nM and the IC50 (second compound 0.0316 µM) was < 3.16 nM. For the same compound, the IC50 (second compound 0.1 µM) was < 3.16 nM, the IC50 (second compound 0.316 µM) was < 3.16 nM and the IC50 (second compound 1 µM) was < 3.16 nM. The viability, T/C (second compound 0.00316 µM, first compound 0.00316 µM) was 70%, the viability, T/C (second compound 0.00316 µM, first compound 0.01 µM) was 68.4% and the viability, T/C [1] was 62.2%. For the same compound, the viability, T/C [2] was 54.2%, the viability, T/C [3] was 55.1% and the viability, T/C [4] was 65.3%. It also gave a viability, T/C (second compound 0.01 µM, first compound 0.00316 µM) of 61%, a viability, T/C (second compound 0.01 µM, first compound 0.01 µM) of 50.4% and a viability, T/C [5] of 49.1%. The viability, T/C [6] was 41.3%, the viability, T/C [7] was 41.5% and the viability, T/C [8] was 60.8%. It also gave a viability, T/C (second compound 0.0316 µM, first compound 0.00316 µM) of 31.4%, a viability, T/C (second compound 0.0316 µM, first compound 0.01 µM) of 34.8% and a viability, T/C [9] of 29.5%. For the same compound, the viability, T/C [10] was 28.1%, the viability, T/C [11] was 31% and the viability, T/C [12] was 33.7%. It also gave a viability, T/C (second compound 0.1 µM, first compound 0.00316 µM) of 22%, a viability, T/C (second compound 0.1 µM, first compound 0.01 µM) of 20.4% and a viability, T/C [13] of 17.7%. It also gave a viability, T/C [14] of 16.6%, a viability, T/C [15] of 16.9% and a viability, T/C [16] of 19.3%. The viability, T/C (second compound 0.316 µM, first compound 0.00316 µM) was 5.44%, the viability, T/C (second compound 0.316 µM, first compound 0.01 µM) was 4.49% and the viability, T/C [17] was 4.5%. The viability, T/C [18] was 6.65%, the viability, T/C [19] was 6.95% and the viability, T/C [20] was 7.72%. The viability, T/C (second compound 1 µM, first compound 0.00316 µM) was 1.02%, the viability, T/C (second compound 1 µM, first compound 0.01 µM) was 1.63% and the viability, T/C [21] was 1.24%. For the same compound, the viability, T/C [22] was 1.32%, the viability, T/C [23] was 2.23% and the viability, T/C [24] was 3.91%.

With `Cn1ncc(Cl)c1-c1cc(C(=O)NC(CN)Cc2cccc(F)c2)sc1Cl` (stereo unspecified) + COc1c(OCCCN2CCOCC2)ccc2c3n(c(=NC(=O)c4cnc(N)nc4)nc12)CCN3 the IC50 (second compound 0.00316 µM) was 53.2 nM, the IC50 (second compound 0.01 µM) was < 31.6 nM and the IC50 (second compound 0.0316 µM) was < 31.6 nM. For the same compound, the IC50 (second compound 0.1 µM) was < 31.6 nM, the IC50 (second compound 0.316 µM) was < 31.6 nM and the IC50 (second compound 1 µM) was < 31.6 nM. It also gave a viability, T/C [1] of 55.2%, a viability, T/C [2] of 43.9% and a viability, T/C [3] of 25.2%. For the same compound, the viability, T/C [4] was 15.7%, the viability, T/C [25] was 9.84% and the viability, T/C [26] was 10.3%. The viability, T/C [5] was 46.3%, the viability, T/C [6] was 39% and the viability, T/C [7] was 21.6%. It also gave a viability, T/C [8] of 12.4%, a viability, T/C [27] of 7.68% and a viability, T/C [28] of 10.1%. It also gave a viability, T/C [9] of 30.6%, a viability, T/C [10] of 28% and a viability, T/C [11] of 20%. The viability, T/C [12] was 10.6%, the viability, T/C [29] was 8.98% and the viability, T/C [30] was 7.48%. For the same compound, the viability, T/C [13] was 21.4%, the viability, T/C [14] was 19.4% and the viability, T/C [15] was 12.5%. It also gave a viability, T/C [16] of 8.76%, a viability, T/C [31] of 8.67% and a viability, T/C [32] of 5.52%. It also gave a viability, T/C [17] of 4.97%, a viability, T/C [18] of 5.24% and a viability, T/C [19] of 3.32%. The viability, T/C [20] was 4.64%, the viability, T/C [33] was 4.59% and the viability, T/C [34] was 3.13%. The viability, T/C [21] was 1.15%, the viability, T/C [22] was 1.24% and the viability, T/C [23] was 1.45%. For the same compound, the viability, T/C [24] was 1.8%, the viability, T/C [35] was 2.57% and the viability, T/C [36] was 0.94%.

With `Cn1nccc1Nc1nccc(-c2ccn(C(CO)c3ccc(Cl)c(F)c3)c(=O)c2)n1` (stereo unspecified) + COc1c(OCCCN2CCOCC2)ccc2c3n(c(=NC(=O)c4cnc(N)nc4)nc12)CCN3 the IC50 (second compound 0.00316 µM) was 299 nM, the IC50 (second compound 0.01 µM) was 40.8 nM and the IC50 (second compound 0.0316 µM) was < 31.6 nM. The IC50 (second compound 0.1 µM) was < 31.6 nM, the IC50 (second compound 0.316 µM) was < 31.6 nM and the IC50 (second compound 1 µM) was < 31.6 nM. It also gave a viability, T/C [1] of 70.4%, a viability, T/C [2] of 66.3% and a viability, T/C [3] of 49.1%. The viability, T/C [4] was 51.9%, the viability, T/C [25] was 44.8% and the viability, T/C [26] was 49.8%. The viability, T/C [5] was 52%, the viability, T/C [6] was 47.7% and the viability, T/C [7] was 40.3%. The viability, T/C [8] was 43.9%, the viability, T/C [27] was 42.1% and the viability, T/C [28] was 34.2%. It also gave a viability, T/C [9] of 37.3%, a viability, T/C [10] of 35.5% and a viability, T/C [11] of 26.8%. It also gave a viability, T/C [12] of 27.5%, a viability, T/C [29] of 27.3% and a viability, T/C [30] of 25.2%. It also gave a viability, T/C [13] of 20.4%, a viability, T/C [14] of 20.2% and a viability, T/C [15] of 18.3%. The viability, T/C [16] was 19%, the viability, T/C [31] was 20% and the viability, T/C [32] was 11.8%. It also gave a viability, T/C [17] of 5.76%, a viability, T/C [18] of 4.79% and a viability, T/C [19] of 5.29%. For the same compound, the viability, T/C [20] was 3.62%, the viability, T/C [33] was 3.85% and the viability, T/C [34] was 0.65%. For the same compound, the viability, T/C [21] was 0.97%, the viability, T/C [22] was 1.38% and the viability, T/C [23] was 1.3%. For the same compound, the viability, T/C [24] was 0.75%, the viability, T/C [35] was 0.59% and the viability, T/C [36] was 0.31%.
